Results taken from PubChem BioAssay AID1845201 (Molecular Pharmacology Branch, DTP, NCI, 2023).
Where “and” joins values, the source holds several entries; their conditions need not be identical. Equal entries are not always repeated.

Tested on: COR L88 complex tumor spheroid viability
Assay: Anticancer human tumor COR L88 cell line growth inhibition;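 further: compound exposure lasted 7 days before viability readout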;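 on viability, T/C: percent of DMSO vehicle-treated spheroids = 100%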
Conditions: for viability, T/C: stronger effect = lower value
Excerpt: Multicellular complex tumor spheroid response to DNA repair inhibitors in combination with DNA-damaging drugs
This study explores the anticancer activities of DNA-damaging drugs and inhibitors of DNA damage repair, both as single agents and in combinations. Complex tumor spheroids comprised of malignant cells, endothelial cells and mesenchymal stem cells served as an in vitro model for human solid tumors. This model system incorporates physiologically relevant features and patient-derived or established malignant cell lines with clinically relevant genetic alterations from many tumor types. Twenty-six patient-derived or established malignant cell lines were evaluated representing sarcoma, melanoma, small cell lung cancer (SCLC), non-small cell lung cancer (NSCLC), as well as bladder, ovarian and pancreatic cancers. The concentration ranges selected for each drug and investigational agent were based upon clinically achievable concentrations if the clinical Cmax of the agent was known.
Compounds. The drugs and compounds olaparib (NSC753686), talazoparib (NSC767125), berzosertib (NSC777718), elimusertib (NSC800525), nedisertib (NSC802822), VX-984 (NSC792969), AZD-1390 (NSC803789), temozolomide (NSC362856), topotecan (NSC609699), trabectedin (NSC813783), staurosporine (NSC755774), and gemcitabine (NSC613327) were obtained from the National Cancer Institute (NCI) Developmental Therapeutics Program Chemical Repository. The FDA-approved anticancer drug set is available from the Developmental Therapeutics Program at https://dtp.cancer.gov/organization/dscb/obtaining/available_plates.htm. […] The stock solutions were prepared in dimethyl sulfoxide (DMSO, Sigma-Aldrich, St. Louis, MO, cat. D2650) at 400-fold the tested concentration and stored at -70 degrees C. Prior to their use, the stock solutions were diluted in fresh medium and the final DMSO concentration in the assay was 0.25% (v/v). All drugs and investigational agents were tested over a range starting from a high concentration at or near the clinical Cmax and decreasing in half-log increments. If the clinical Cmax for an agent had not been determined, the highest concentration tested was 10 microM.
Cell Lines. The patient-derived cancer cell (PDC) lines: 156681-154-R-J1-PDC, 283228-195-R-J1-PDC, 287954-098-R-J1-PDC, 292921-168-R-J2-PDC, 349418-098-R-PDC, 425362-245-T-J1-PDC, 556581-035-R-J1-PDC, and BL0293-F563-PDC were received from the NCI Patient-Derived Models Repository (PDMR, https://pdmr.cancer.gov). The established cell lines HS-SY-2 (RRID:CVCL_8719), MPNST, and SYO-1 (RRID:CVCL_7146) were obtained from the Sloan Kettering Institute. The alveolar soft parts sarcoma cell line ASPS-1 (RRID:CVCL_S738) was established at the NCI and grown from internal seed stocks. The following established cell lines were purchased from the American Type Culture Collection (ATCC, Manassas, VA): G-401 (ATCC, cat. CRL-1441, RRID:CVCL_0270), SW982 (ATCC, cat. HTB-93, RRID:CVCL_1734), VA-ES-BJ (ATCC, cat. CRL-2138, RRID:CVCL_1785), NCI-H719 (ATCC, cat. CRL-5837, RRID:CVCL_1582), NCI-H196 (ATCC, cat. CRL-5823, RRID:CVCL_1509), NCI-H841 (ATCC, cat. CRL-5845, RRID:CVCL_1595), NCI-H1618 (ATCC, cat. CRL-5879, RRID:CVCL_1480), NCI-H1876 (ATCC, cat. CRL-5902, RRID:CVCL_1503), DMS 114 (ATCC, cat. CRL-2066; RRID:CVCL_1174), NCI-H211 (ATCC, cat. CRL-5824; RRID:CVCL_1529), and SW 1271 (ATCC, cat. CRL-2177, RRID:CVCL_1716). The small cell lung cancer cell line COR-L88 was purchased from Sigma-Aldrich (cat. 92031917-1VL, RRID:CVCL_1141). The non-small cell lung cancer cell lines NCI-H226 (RRID:CVCL_1544) and NCI-H322M (RRID:CVCL_1557) were established at the NCI and grown from internal seed stocks. Pooled donor human umbilical vein endothelial cells (HUVEC, Lonza, cat. CC-2519) and human mesenchymal stem cells (hMSC, Lonza, cat. PT-2501) were purchased from Lonza (Walkersville, MD).
Cell Culture. All cells were maintained in an incubator at 37 degrees C and 5% CO2 with 95% humidity. […]

[1] = curve of first compound, second compound 1 µM
[2] = curve of first compound, second compound 3.16 µM
[3] = curve of first compound, second compound 10 µM
[4] = curve of first compound, second compound 31.6 µM
[5] = curve of first compound, second compound 100 µM
[6] = second compound 1 µM, first compound 0.00949 µM
[7] = second compound 1 µM, first compound 0.03 µM
[8] = second compound 1 µM, first compound 0.0949 µM
[9] = second compound 1 µM, first compound 0.3 µM
[10] = second compound 1 µM, first compound 0.949 µM
[11] = second compound 1 µM, first compound 3 µM
[12] = second compound 3.16 µM, first compound 0.00949 µM
[13] = second compound 3.16 µM, first compound 0.03 µM
[14] = second compound 3.16 µM, first compound 0.0949 µM
[15] = second compound 3.16 µM, first compound 0.3 µM
[16] = second compound 3.16 µM, first compound 0.949 µM
[17] = second compound 3.16 µM, first compound 3 µM
[18] = second compound 10 µM, first compound 0.00949 µM
[19] = second compound 10 µM, first compound 0.03 µM
[20] = second compound 10 µM, first compound 0.0949 µM
[21] = second compound 10 µM, first compound 0.3 µM
[22] = second compound 10 µM, first compound 0.949 µM
[23] = second compound 10 µM, first compound 3 µM
[24] = second compound 31.6 µM, first compound 0.00949 µM
[25] = second compound 31.6 µM, first compound 0.03 µM
[26] = second compound 31.6 µM, first compound 0.0949 µM
[27] = second compound 31.6 µM, first compound 0.3 µM
[28] = second compound 31.6 µM, first compound 0.949 µM
[29] = second compound 31.6 µM, first compound 3 µM
[30] = second compound 100 µM, first compound 0.00949 µM
[31] = second compound 100 µM, first compound 0.03 µM
[32] = second compound 100 µM, first compound 0.0949 µM
[33] = second compound 100 µM, first compound 0.3 µM
[34] = second compound 100 µM, first compound 0.949 µM
[35] = second compound 100 µM, first compound 3 µM

CNCc1ccc(-c2cc(-c3nc(-c4ccc(S(=O)(=O)C(C)C)cc4)cnc3N)on2)cc1 + Cn1nnc2c(C(N)=O)ncn2c1=O
IC50 [1]: 618 nM | IC50 [2]: 639 nM | IC50 [3]: 463 nM | IC50 [4]: 448 nM | IC50 [5]: 386 nM | viability, T/C [6]: 99.9% | viability, T/C [7]: 97.6% | viability, T/C [8]: 102% | viability, T/C [9]: 72.1% | viability, T/C [10]: 36.8% | viability, T/C [11]: 12.9% | viability, T/C [12]: 92.9% | viability, T/C [13]: 107% | viability, T/C [14]: 112% | viability, T/C [15]: 81.3% | viability, T/C [16]: 33.6% | viability, T/C [17]: 11% | viability, T/C [18]: 87.4% | viability, T/C [19]: 99.7% | viability, T/C [20]: 95.3% | viability, T/C [21]: 63.8% | viability, T/C [22]: 25.9% | viability, T/C [23]: 10.8% | viability, T/C [24]: 80.7% | viability, T/C [25]: 90.9% | viability, T/C [26]: 101% | viability, T/C [27]: 62.5% | viability, T/C [28]: 25.1% | viability, T/C [29]: 11.2% | viability, T/C [30]: 78.3% | viability, T/C [31]: 81% | viability, T/C [32]: 76.5% | viability, T/C [33]: 58% | viability, T/C [34]: 21.3% | viability, T/C [35]: 9.59%

CNCc1ccc(-c2cc(-c3nc(-c4ccc(S(=O)(=O)C(C)C)cc4)cnc3N)on2)cc1
viability, T/C (compound 0.00949 µM): 98.5% and 103% and 105% | viability, T/C (compound 0.03 µM): 111% and 118% and 104% | viability, T/C (compound 0.0949 µM): 109% and 107% and 101% | viability, T/C (compound 0.3 µM): 87% and 84.6% and 56.4% | viability, T/C (compound 0.949 µM): 40.9% and 47.2% and 22.6% | viability, T/C (compound 3 µM): 11.8% and 11.3% and 5.68% | IC50 (curve of compound): 753 nM and 848 nM and 391 nM

CC1COCCN1c1cc(-c2ccnn2C)c2ccnc(-c3ccn[nH]3)c2n1 (configuration not stated) + COc1cc2c(cc1O)CCNC21CSC2c3c(OC(C)=O)c(C)c4c(c3C(COC1=O)N1C(O)C3Cc5cc(C)c(OC)c(O)c5C(C21)N3C)OCO4
IC50 (curve of first compound, second compound 30 pM): 111 nM | IC50 (curve of first compound, second compound 94.9 pM): < 31.6 nM | IC50 (curve of first compound, second compound 0.0003 µM): < 31.6 nM | IC50 (curve of first compound, second compound 0.000949 µM): < 31.6 nM | IC50 (curve of first compound, second compound 0.003 µM): < 31.6 nM | viability, T/C (second compound 30 pM, first compound 0.0316 µM): 72.1% | viability, T/C (second compound 30 pM, first compound 0.1 µM): 49.5% | viability, T/C (second compound 30 pM, first compound 0.316 µM): 36.7% | viability, T/C (second compound 30 pM, first compound 1 µM): 20.3% | viability, T/C (second compound 30 pM, first compound 3.16 µM): 7.72% | viability, T/C (second compound 30 pM, first compound 10 µM): 3.13% | viability, T/C (second compound 94.9 pM, first compound 0.0316 µM): 41.8% | viability, T/C (second compound 94.9 pM, first compound 0.1 µM): 36.9% | viability, T/C (second compound 94.9 pM, first compound 0.316 µM): 25.6% | viability, T/C (second compound 94.9 pM, first compound 1 µM): 17.2% | viability, T/C (second compound 94.9 pM, first compound 3.16 µM): 6.6% | viability, T/C (second compound 94.9 pM, first compound 10 µM): 2.46% | viability, T/C (second compound 0.0003 µM, first compound 0.0316 µM): 28.6% | viability, T/C (second compound 0.0003 µM, first compound 0.1 µM): 25.4% | viability, T/C (second compound 0.0003 µM, first compound 0.316 µM): 19.9% | viability, T/C (second compound 0.0003 µM, first compound 1 µM): 11% | viability, T/C (second compound 0.0003 µM, first compound 3.16 µM): 3.54% | viability, T/C (second compound 0.0003 µM, first compound 10 µM): 1.58% | viability, T/C (second compound 0.000949 µM, first compound 0.0316 µM): 6.86% | viability, T/C (second compound 0.000949 µM, first compound 0.1 µM): 7.07% | viability, T/C (second compound 0.000949 µM, first compound 0.316 µM): 3.61% | viability, T/C (second compound 0.000949 µM, first compound 1 µM): 2.02% | viability, T/C (second compound 0.000949 µM, first compound 3.16 µM): 0.7% | viability, T/C (second compound 0.000949 µM, first compound 10 µM): 0.25% | viability, T/C (second compound 0.003 µM, first compound 0.0316 µM): 0.56% | viability, T/C (second compound 0.003 µM, first compound 0.1 µM): 0.53% | viability, T/C (second compound 0.003 µM, first compound 0.316 µM): 0.53% | viability, T/C (second compound 0.003 µM, first compound 1 µM): 0.41% | viability, T/C (second compound 0.003 µM, first compound 3.16 µM): 0.58% | viability, T/C (second compound 0.003 µM, first compound 10 µM): 0.58%

Cn1ncnc1[C@H]1c2n[nH]c(=O)c3cc(F)cc(c23)N[C@@H]1c1ccc(F)cc1 + Cn1nnc2c(C(N)=O)ncn2c1=O
IC50 [1]: 205 nM | IC50 [2]: 124 nM | IC50 [3]: 57.7 nM | IC50 [4]: < 9.49 nM | IC50 [5]: < 9.49 nM | viability, T/C [6]: 79.6% | viability, T/C [7]: 74% | viability, T/C [8]: 58.4% | viability, T/C [9]: 45.8% | viability, T/C [10]: 39.8% | viability, T/C [11]: 36.3% | viability, T/C [12]: 79.4% | viability, T/C [13]: 65.2% | viability, T/C [14]: 51.1% | viability, T/C [15]: 45.3% | viability, T/C [16]: 38.5% | viability, T/C [17]: 39.1% | viability, T/C [18]: 58.6% | viability, T/C [19]: 54.8% | viability, T/C [20]: 45.9% | viability, T/C [21]: 43.1% | viability, T/C [22]: 40.8% | viability, T/C [23]: 36.3% | viability, T/C [24]: 50.2% | viability, T/C [25]: 46.1% | viability, T/C [26]: 44.2% | viability, T/C [27]: 39.4% | viability, T/C [28]: 38.9% | viability, T/C [29]: 30.1% | viability, T/C [30]: 44.4% | viability, T/C [31]: 41.8% | viability, T/C [32]: 35.1% | viability, T/C [33]: 35.1% | viability, T/C [34]: 32.6% | viability, T/C [35]: 33.3%
